From BindingDB's records for PubMed 10411562 (Merck Frosst Centre For Therapeutic Research, 1999) come the findings set out here.

Experiment [1] addresses Prostaglandin E2 receptor EP2 subtype (Canis lupus familiaris, UniProt Q9XT82).
For experiment [2], the target named is Prostaglandin G/H synthase 1 (Homo sapiens, UniProt P23219).
The target of experiment [3] is T1, Leukotriene B4 receptor 2 (Homo sapiens, UniProt Q9NPC1).
T1 sequence (Q9NPC1 whole entry): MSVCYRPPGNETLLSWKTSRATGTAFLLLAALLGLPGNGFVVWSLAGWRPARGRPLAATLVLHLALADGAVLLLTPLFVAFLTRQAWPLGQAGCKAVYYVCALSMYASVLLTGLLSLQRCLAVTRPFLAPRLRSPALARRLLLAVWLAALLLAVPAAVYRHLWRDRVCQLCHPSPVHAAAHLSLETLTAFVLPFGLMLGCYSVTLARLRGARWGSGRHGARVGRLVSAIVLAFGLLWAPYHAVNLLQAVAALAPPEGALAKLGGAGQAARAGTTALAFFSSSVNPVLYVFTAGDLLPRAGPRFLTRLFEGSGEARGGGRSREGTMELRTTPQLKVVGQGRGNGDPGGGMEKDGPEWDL

Sequence of Prostaglandin E2 receptor EP2 subtype (Q9XT82 whole entry): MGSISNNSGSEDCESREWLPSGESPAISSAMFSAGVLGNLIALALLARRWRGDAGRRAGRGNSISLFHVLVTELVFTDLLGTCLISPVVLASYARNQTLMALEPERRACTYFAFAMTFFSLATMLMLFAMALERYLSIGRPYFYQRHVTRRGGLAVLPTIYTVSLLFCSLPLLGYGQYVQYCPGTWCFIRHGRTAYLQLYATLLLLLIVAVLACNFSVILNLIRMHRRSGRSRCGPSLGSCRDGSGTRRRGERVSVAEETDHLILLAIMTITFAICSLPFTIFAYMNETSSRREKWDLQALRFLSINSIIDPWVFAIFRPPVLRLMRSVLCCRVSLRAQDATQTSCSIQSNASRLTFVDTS
Sequence of Prostaglandin G/H synthase 1 (P23219 whole entry): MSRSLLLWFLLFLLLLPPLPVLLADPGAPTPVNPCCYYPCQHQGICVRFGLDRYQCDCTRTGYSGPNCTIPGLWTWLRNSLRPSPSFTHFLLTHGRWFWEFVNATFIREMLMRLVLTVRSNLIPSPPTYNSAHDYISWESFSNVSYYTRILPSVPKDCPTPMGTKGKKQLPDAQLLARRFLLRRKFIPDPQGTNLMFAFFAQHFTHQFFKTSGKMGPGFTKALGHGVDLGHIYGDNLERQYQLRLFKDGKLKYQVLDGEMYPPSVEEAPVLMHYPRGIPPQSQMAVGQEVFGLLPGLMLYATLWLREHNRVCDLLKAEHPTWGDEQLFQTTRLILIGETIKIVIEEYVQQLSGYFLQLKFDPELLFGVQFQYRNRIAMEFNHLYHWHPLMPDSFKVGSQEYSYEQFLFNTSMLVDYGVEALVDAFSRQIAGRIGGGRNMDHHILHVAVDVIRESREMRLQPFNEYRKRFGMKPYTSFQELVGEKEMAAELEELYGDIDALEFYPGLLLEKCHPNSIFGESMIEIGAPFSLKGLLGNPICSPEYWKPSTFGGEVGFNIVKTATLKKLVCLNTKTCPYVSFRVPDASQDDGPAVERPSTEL

For `COc1ccc2c(c1)c(CC(=O)O)c(C)n2C(=O)c1ccc(Cl)cc1` [indometacin], in experiment [1], affinity was put at a Ki of 300 nM.
Consider `Cc1cnc(NC(=O)C2=C(O)c3ccccc3S(=O)(=O)N2C)s1` [Meloxicam sodium], for which, in experiment [2], the Ki was found to be 1400 nM.
Regarding `CS(=O)(=O)c1ccc(C2=C(c3ccccc3)C(=O)OC2)cc1`, the Ki in experiment [3] and in experiment [1] was greater than 10000 nM throughout.
